Source: US20240124445A1, “BENZENE RING COMPOUND AND USE THEREOF” (NANJING SHIJIANG MEDICINE TECHNOLOGY CO., LTD, priority 2020, published 2024)
Like-named read-outs stand apart in the source and are kept apart here.

Columns and labels:
GB-1 = assay: Cell viability (CellTiter-Glo) of GB-1; format: cell-based; settings: Homo sapiens, 72 h; GB-1, 3 days of culture
Description: (§1) Cell viability was detected using the Promega CellTiter-Glo kit, the kit reflected cell viability by directly measuring intracellular ATP content. In the experiment, the IC50 value of different compounds on different tumor cell lines was detected to determine cell lines that were sensitive or insensitive to different compounds.
(§2) Tumor cells were cultured in 10% FBS-containing medium (+p/s), and incubated for 3 h or the following day, then the gradient diluted compound was added. After 3 days of culture, the relevant IC50 (50% inhibiting concentration) was measured. The name, source and culture conditions of each tumor cell line were as follows:
Cell line GB-1 (JCRB, No. IF050489) was cultured in 10% fetal bovine serum-containing DMEM medium (+P/S).

G-401 = assay: Cell viability (CellTiter-Glo) of G-401; format: cell-based; settings: Homo sapiens
Description: (§3) Cell viability was detected using the Promega CellTiter-Glo kit, the kit reflected cell viability by directly measuring intracellular ATP content. Different cancer cells was cultured in medium, the 50% inhibiting concentration (IC50) of compound AB24852 on cancer cells was determined using Promega CellTiter-Glo kit. The name, source and culture conditions of each tumor cell line were as follows:
Cell line G-401 (ATCC, No. CRL-1441) was cultured in 10% fetal bovine serum-containing McCoy's 5a medium (+P/S).
as §1
as §2, with “follows: […]” for “follows:”

786-O = assay: Cell viability (CellTiter-Glo) of 786-O; format: cell-based; settings: Homo sapiens, 786-0, 72 h, 3 days of culture
Description: as §1, §2
Cell line 786-0 (ATCC, No. CRL-1932) was cultured in 10% fetal bovine serum-containing RPMI1640 medium (+P/S).

MDA-MB-453 = assay: Cell viability (CellTiter-Glo) of MDA-MB-453; format: cell-based; settings: Homo sapiens
Description: as §3
Cell line MDA-MB-453 (ATCC, No. HTB-131) was cultured in 10% fetal bovine serum-containing Leibovitz's L-15 medium (+P/S).
as §1
as §2, with “follows: […]” for “follows:”

[1] = Stability in human liver microsome; format: in vitro ADME; settings: liver microsomes, pH 7.4, 1.5 μM drug solution, NADPH, 37° C., read-out: Human T1/2
Description: Vortexing for 10 min, the sample was centrifuged with 5594×g for 15 min in centrifuger (Thermo Multifuge×3R). • 10) taking 50 μL supernatant from the centrifuged sample, transferred to 96 well sample plate contain 50 μL water, mixed, and the sample was analyzed using LC-MS/MS.

CFPAC-1 = assay: Cell viability (CellTiter-Glo) of CFPAC-1; format: cell-based; settings: Homo sapiens, 72 h; CFPAC-1, 3 days of culture
Description: as §1, §2
Cell line CFPAC-1 (ATCC, No. CRL-1918) was cultured in 10% fetal bovine serum-containing IMDM medium (+P/S).

SW48 = assay: Cell viability (CellTiter-Glo) of SW48; format: cell-based; settings: Homo sapiens
Description: as §3
Cell line SW48 (ATCC, No. CCL-231) was cultured in 10% fetal bovine serum-containing Leibovitz's L-15 medium (+P/S).
as §1
as §2, with “follows: […]” for “follows:”

NCI-H82 cell = assay: Cell viability (Promega CellTiter-Glo) of NCI-H82 cell; format: cell-based; settings: Homo sapiens
Description: Cell viability was detected using the Promega CellTiter-Glo kit, the kit reflected cell viability by directly measuring intracellular ATP content. Small cell lung cancer cell NCI-H82 (ATCC, No. HTB-175) was cultured in 10% fetal bovine serum-containing RPMI1640 medium (+P/S).
Cell viability was detected using the Promega CellTiter-Glo kit, the kit reflected cell viability by directly measuring intracellular ATP content.
Daoy cell was cultured in 10% fetal bovine serum-containing DMEM medium (+P/S), and NCI-H82 cell was cultured in 10% fetal bovine serum-containing RPMI1640 medium (+P/S).
as §1, §2
Cell line NCI-H82 (ATCC, No. HTB-175) was cultured in 10% fetal bovine serum-containing RPMI1640 medium (+P/S).

SF-126 = assay: Cell viability (CellTiter-Glo) of SF-126; format: cell-based; settings: Homo sapiens, 72 h; SF-126, 3 days of culture
Description: as §1
as §2, with “follows: […]” for “follows:”

SNU-398 = assay: Cell viability (CellTiter-Glo) of SNU-398; format: cell-based; settings: Homo sapiens; SNU-398, liver cancer
Description: as §3
Cell line SNU-398 (ATCC, number CRL-2233) was cultured in 10% fetal bovine serum-containing RPMI1640 medium (+P/S).

A-375 = assay: Cell viability (CellTiter-Glo) of A-375; format: cell-based; settings: Homo sapiens; A-375, melanoma
Description: as §3
Cell line A-375 (ATCC, No. CRL-1619) was cultured in 10% fetal bovine serum-containing DMEM medium (+P/S).

OCI-AML-4 = assay: Cell viability (CellTiter-Glo) of OCI-AML-4; format: cell-based; settings: OCI-AML-4, leukemia
Description: as §3
Cell line OCI-AML-4 (DSMZ, No. ACC-729) was cultured in alpha-MEM medium containing 20% fetal bovine serum and 20% volume fraction of 5637 cell line adjusted medium (+P/S).

NCI-H1048 = assay: Cell viability (CellTiter-Glo) of NCI-H1048; format: cell-based; settings: Homo sapiens; NCI-H1048, lung cancer
Description: as §3
Cell line NCI-H1048 (ATCC, No. CRL-5853) was cultured in 5% fetal bovine serum-containing HITES medium (+P/S).

22RV1 = assay: Cell viability (CellTiter-Glo) of 22RV1; format: cell-based; settings: Homo sapiens; 22RV1, prostatic cancer
Description: as §3
Cell line 22RV1 (ATCC, No. CRL-2505) was cultured in 10% fetal bovine serum-containing RPMI1640 medium (+P/S).

SU-DHL-2 = assay: Cell viability (CellTiter-Glo) of SU-DHL-2; format: cell-based; settings: Homo sapiens; SU-DHL-2, lymphoma
Description: as §3
Cell line SU-DHL-2 (ATCC, No. CRL-2956) was cultured in 10% fetal bovine serum-containing RPMI1640 medium (+P/S).

MIA PaCa-2 = assay: Cell viability (CellTiter-Glo) of MIA PaCa-2; format: cell-based; settings: Homo sapiens; MIA PaCa-2, pancreatic cancer
Description: as §3
Cell line MIA PaCa-2 (ATCC, No. CRL-1420) was cultured in 10% fetal bovine serum-containing DMEM medium (+P/S).

[2] = test system: mitochondria permeability transition pore; assay: Mitochondria membrane potential difference by TMRM in Daoy cell; format: cell-based, human; settings: H2O2 +, CsA none
[3] = test system: mitochondria permeability transition pore; assay: Mitochondria membrane potential difference by TMRM in NCI-H82 cell; format: cell-based, human; settings: H2O2 +, CsA none
[4] = 72 h, G-401, 3 days of culture, Table 5, read-out: IC50 G-401
[5] = 72 h, MDA-MB-453, 3 days of culture, Table 5, read-out: IC50 MDA-MB-453
[6] = 72 h, SW48, 3 days of culture, Table 5, read-out: IC50 SW48
[7] = 72 h, NCI-H82, 3 days of culture, Table 5, read-out: IC50 NCI-H82
[8] = NCI-H82 cell, Table 1, read-out: IC50

SMILES | IC50 (GB-1) [nM] | IC50 (G-401; [4]) [nM] | IC50 (786-O) [nM] | IC50 (MDA-MB-453; [5]) [nM] | half-life at 1 µM [1] [h] | IC50 (CFPAC-1) [nM] | IC50 (SW48; [6]) [nM] | IC50 (NCI-H82 cell; [7]) [nM] | IC50 (NCI-H82 cell; [8]) [nM] | IC50 (SF-126) [nM] | further results
O=C(C[n+]1ccc(NCc2ccccc2)cc1)c1cccc(Cl)c1 [AB24805A] | 3430 | 420 | 46500 | 210 | 3.71 | 35700 | 760 | 370 | 370 | 3180 | –
O=C(C[n+]1ccc(NCc2ccccc2)cc1)c1ccc(Br)cc1 [AB24808A] | 5270 | 910 | 44000 | 360 | 5.69 | 20000 | 1780 | 610 | 610 | 2980 | –
O=C(C[n+]1ccc(NCc2ccccc2)cc1)c1ccc(C(F)(F)F)cc1 [AB24809A] | > 50000 | 3030 | > 50000 | 1770 | 6.64 | > 50000 | 7640 | 2430 | 2430 | 37500 | –
O=C(C[n+]1ccc(NCc2ccccc2)cc1)c1ccc(OC(F)(F)F)cc1 [AB24810A] | 24500 | 1950 | > 50000 | 2690 | 65.2 | 36000 | 2130 | 1340 | 1340 | 13100 | –
O=C(C[n+]1ccc2[nH]cc(Cc3ccccc3)c2c1)c1ccc(Cl)cc1 [AB24833A] | 22000 | 5300 | 45400 | 5300 | – | 24800 | 8160 | – | – | 21600 | IC50 (NCI-H82 cell; NCI-H82): 3380 nM; IC50 (NCI-H82 cell; NCI-H82, 72 h, read-out: IC50 NCI-H82): 3380 nM
O=C1c2ccc(Cl)cc2CCC1[n+]1ccc(NCc2ccccc2)cc1 (stereo not drawn) [AB24841A] | 16400 | 630 | > 50000 | 620 | 20.4 | 35700 | 800 | 590 | 590 | 10800 | –
Cc1ccc(C(=O)C[n+]2ccc(NCc3ccccc3)cc2)cc1 [AB24845A] | 4370 | 300 | 38600 | 190 | – | 29400 | 140 | 120 | 120 | 2280 | –
Cc1ccc(C(=O)C[n+]2ccc(NCc3ccccc3)nc2)cc1 [AB24846] | 12300 | 690 | 47300 | 820 | – | 36400 | 2050 | 510 | 510 | 3610 | –
O=C(C[n+]1ccc(NCc2ccccc2)cc1)c1cccc([N+](=O)[O-])c1 [AB24852] | > 50000 | 1020 | > 50000 | 220 | 1.78 | > 50000 | 720 | 1460 | 1460 | > 50000 | IC50 (G-401; G-401, renal carcinoma, Table 2, read-out: IC50): 1000 nM; IC50 (MDA-MB-453; MDA-MB-453, breast cancer, Table 2, read-out: IC50): 200 nM; IC50 (SNU-398): 1700 nM; IC50 (SW48; SW48, intestine cancer, Table 2, read-out: IC50): 700 nM; IC50 (A-375): 1300 nM; IC50 (OCI-AML-4): 800 nM; IC50 (NCI-H1048): 1100 nM; IC50 (22RV1): 2300 nM; IC50 (SU-DHL-2): 300 nM; IC50 (MIA PaCa-2): 700 nM
OO [Compound H2O2] | – | – | – | – | – | – | – | – | – | – | Relative TMRM signal intensity, mean value [2]: 82%; Relative TMRM signal intensity, mean value [3]: 119%
